For test [1], the species on record is Cavia porcellus. The experiment in a line: Inhibition of guinea pig classical complement system assessed as hemolysis of sensitized sheep erythrocytes.
For test [2], the species on record is Cavia porcellus. The experiment in a line: Inhibition of guinea pig classical complement system assessed as hemolysis of sensitized sheep erythrocytes at 1000 uM.
Test [3] is filed under the species Homo sapiens. The experiment in a line: Inhibition of human plasma alternative complement system assessed as hemolysis of non-sensitized rabbit erythrocytes at 1000 uM. The test is classed as cell-free.
The species entered for test [4] is Cavia porcellus. The experiment in a line: Activation of guinea pig classical complement system assessed as hemolysis of sensitized sheep erythrocytes at 1000 uM.
The species entered for test [5] is Homo sapiens. The experiment in a line: Activation of human plasma alternative complement system assessed as hemolysis of non-sensitized rabbit erythrocytes at 1000 uM. It is filed as cell-free.

As usually defined, the inhibition is how much of the control response was suppressed. With `O=C(/C=C/c1ccc(O)c(O)c1)O[C@H](Cc1ccc(O)c(O)c1)C(=O)O`, the Activity entry in the test listed under Cavia porcellus [1] is “Dose-dependent effect”. Also, the results for the inhibition in the test listed under Cavia porcellus [2] and in the test filed under Homo sapiens [3] were 93.3% and 67.8%, respectively.

For `C[C@@H]1O[C@@H](Oc2c(-c3ccc(O)c(O)c3)oc3cc(O)cc(O)c3c2=O)[C@H](O)[C@H](O)[C@H]1O`, in the test filed under Cavia porcellus [1], the Activity entry was “Dose-dependent effect”. In addition, the figures for the inhibition in the test filed under Cavia porcellus [2] and in the test listed under Homo sapiens [3] were 56.2% and 13.5%, respectively.

On to `COc1cc(-c2cc(=O)c3c(O)cc(O)cc3o2)ccc1O`, for which the Activity is 9% in the test listed under Cavia porcellus [4] and 59% in the test listed under Homo sapiens [5].

Turning to `C[C@@H]1O[C@@H](OC[C@H]2O[C@@H](Oc3c(-c4ccc(O)cc4)oc4cc(O)cc(O)c4c3=O)[C@H](O)[C@@H](O)[C@@H]2O)[C@H](O)[C@H](O)[C@H]1O`, the Activity in the test filed under Homo sapiens [5] was found to be 18.4%. Moreover, in the test listed under Cavia porcellus [2], the inhibition was 19.2%.

Consider `COc1cc(-c2cc(=O)c3c(O)cc(O[C@@H]4O[C@H](CO)[C@@H](O)[C@H](O)[C@H]4O[C@@H]4O[C@@H](C)[C@H](O)[C@@H](O)[C@H]4O)cc3o2)ccc1O`, for which the Activity was found to be 4.6% in the test filed under Cavia porcellus [4] and 11.2% in the test filed under Homo sapiens [5].

Turning to `O=c1c(O)c(-c2ccc(O)c(O)c2)oc2cc(O)cc(O)c12`, in the test filed under Cavia porcellus [1], the Activity entry is “Dose-dependent effect”. The inhibition came out at 52.5% in the test listed under Cavia porcellus [2] and 24% in the test filed under Homo sapiens [3].

Consider `O=c1cc(-c2ccc(O)cc2)oc2cc(O[C@@H]3O[C@H](CO)[C@@H](O)[C@H](O)[C@H]3O)cc(O)c12`, for which the figures for the Activity in the test filed under Cavia porcellus [4] and in the test filed under Homo sapiens [5] were 2.34% and 2.4%, respectively.

In the case of `O=c1cc(-c2ccc(O)c(O)c2)oc2cc(O[C@@H]3O[C@H](CO)[C@@H](O)[C@H](O)[C@H]3O)cc(O)c12`, the inhibition in the test listed under Cavia porcellus [2] worked out at 25.2%; in the test filed under Homo sapiens [3], 2%.

Consider `COc1cc(O)c2c(=O)c(O)c(-c3ccc(OC)c(O)c3)oc2c1`, for which, in the test filed under Homo sapiens [5], the Activity was determined as 13.7%. Further, the inhibition in the test listed under Cavia porcellus [2] was 24.3%.

`C[C@@H]1O[C@@H](OC[C@H]2O[C@@H](Oc3c(-c4ccc(O)c(O)c4)oc4cc(O)cc(O)c4c3=O)[C@H](O)[C@@H](O)[C@@H]2O)[C@H](O)[C@H](O)[C@H]1O`: the Activity result in the test listed under Cavia porcellus [1] is “Dose-dependent effect”. Moreover, the inhibition in the test filed under Cavia porcellus [2] is 54.4%; in the test filed under Homo sapiens [3], 18%.

For the molecule `C[C@@H]1O[C@@H](Oc2c(-c3ccc(O)cc3)oc3cc(O)cc(O)c3c2=O)[C@H](O)[C@H](O)[C@H]1O`, the inhibition in the test filed under Cavia porcellus [2] came to 5.6%; in the test filed under Homo sapiens [3] it was 6.2%.
